{"source": "patent US10143666B2", "about": "“Small molecule inhibitors targeting CAG-repeat RNA toxicity in polyglutamine diseases” (The Chinese University of Hong Kong, priority 2015, dated 2018)", "key": {"DsRedCAG0 control fly": {"tested_on": "DsRedCAG0 control fly", "parameters": "species or system Drosophila", "conditions": "in vivo", "source_text": "The synthesis of DB213 was described in Marcheschi et al. (Scheme 1)^12, see FIG. 1. By using a MJD (one kind of polyQ diseases) Drosophila disease model, the inventors established an effective screening platform to test a series of synthesized small molecules for their activity to suppress polyQ-induced neurodegeneration. […] To test whether the compounds acted on CAG-repeat RNA level, another Drosophila model, DsRedCAG100^6, was employed. […] Therefore, DB213 was confirmed to modulate expanded CAG-repeat RNA-mediated toxicity in vivo.\nFlies were raised at 21.5° C. on cornmeal medium supplemented with dry yeast. Pseudopupil assay was performed on 12 day-old adult flies as mentioned previously^18. Images were captured by SPOT Insight CCD camera controlled by the SPOT Advanced software (Diagnostic instruments Inc.). External eye assay was performed on 12 day-old adult flies by Olympus SZX-12 stereomicroscope. Eye images were captured using a SPOT Insight CCD camera (Diagnostic instruments Inc.)."}, "trMJDCAG78 cells": {"tested_on": "trMJDCAG78 cells", "experiment": "LDH cytotoxicity assay, trMJDCAG78 cell model", "assay_type": "cell-based, human", "conditions": "both RNA and polyQ protein toxicities", "protocol": "It was next investigated whether DB213 could mitigate expanded CAG-repeat RNA-mediated toxicity in SK-N-MC human neuronal cell. […] Taken together, DB213 could suppress the expanded CAG RNA-mediated but not polyQ protein-mediate toxicity in human neuronal cell.\nSK-N-MC human neuronal cells were seeded on a 24-well plate and lactate dehydrogenase enzyme activity in the cell culture medium was measured 72 hours post-transfection and drugs treatment using the Cytotox 96 non-radioactive cytotoxicity assay (Promega)."}, "[1]": {"tested_on": "primary rat cortical neurons", "experiment": "Cytotoxicity test on primary rat cortical neurons", "assay_type": "cell-based", "source_text": "To address the specificity of DB213 on expanded CAG-repeat RNA toxicity in vitro, another small molecule compound, C4G2, labeled as ligand 3 in the study^17, was employed."}, "[2]": {"tested_on": "pre-45s rRNA in EGFPCAG78 RNA expressing SK-N-MC cells", "experiment": "pre-45s rRNA real-time PCR, EGFPCAG78 RNA expressing SK-N-MC cells", "assay_type": "cell-based, human", "protocol": "(§1) Nucleolar stress and a chain of downstream events were triggered and ultimately led to apoptosis^7.\n(§2) RNA was extracted from cells by Trizol reagent (Life Technologies), and 1 μg of purified RNA was then used for reverse-transcription using the ImPromII™ Reverse Transcription System (Promega). Random hexamer (Roche) was used as primers in reverse transcription. Taqman gene expression assays were performed on an ABI 7500 Real-time PCR system and data were analyzed as previously described^7. The following probes were used: pre-45s rRNA (Assay ID: AILJIZM) and actin (Assay ID: Hs99999903_m1)."}, "[3]": {"tested_on": "pre-45s rRNA in EGFPCAG27 RNA expressing cell", "experiment": "pre-45s rRNA real-time PCR, EGFPCAG27 RNA expressing cells", "assay_type": "cell-based, human", "protocol": "as §1, §2"}, "R6/2 Huntington's mice [4]": {"tested_on": "R6/2 Huntington's mice", "experiment": "Open field test in R6/2 mice", "assay_type": "in vivo", "protocol": "(§3) The body weights were measured daily.\nOpen field test was performed at baseline, and on day 7. The mice were brought to the experimental room for at least 1 h acclimation to the experimental room conditions prior to testing. Activity chambers (Med Associates Inc, St Albans, Vt.; 27×27×20.3 cm) were equipped with IR beams. Mice were placed in the center of the chamber and their behavior was recorded for 30 min in 5-minute bins. Quantitative analysis was performed on the following five dependent measures: total locomotion, locomotion in the center of the open field, rearing rate in the center, total rearing frequency and velocity. Animals were tested at low-stress conditions where the light was lowered to approximately 10-30 lux of red light."}, "R6/2 Huntington's mice [5]": {"tested_on": "R6/2 Huntington's mice", "experiment": "Neurological index scoring in R6/2 mice", "assay_type": "in vivo", "protocol": "as §3\nThe following 30 behaviors were evaluated: Head Tremor, Head Twitch, Head Bobbing, Head Searching, Body Tremor, Body Twitch, Tail Tremor, Tail Twitch, Straub Tail, Piloerection, Shallow Respiration, Flattened Body Posture, Swollen Face, Ptosis, Irritability, Seizure, Urine Staining, Lacrimation, Salivation, Limb Splay, Catalepsy, Abnormal Gait, Tip Toe Walking, Slow Careful Movements, Excessive Grooming, Circling, Sniffing, and Chewing. In addition to the above occurrences the chronic observational phase included excessive locomotor activity, loss of startle response, loss of righting reflex, dehydration and tail pinch. The assessment was performed as follows: A score of 0 was assigned for normal features (such as locomotor activity) or for the absence of abnormal features (such as absence of piloerection); a score of 1 was given when mild abnormalities were observed; and a score of 2-3 was given when severe abnormalities were observed. All of these features were scored from simple observation of the mice in their cage, except for the startle, tail pinch and righting reflexes which were direct manipulations. To test the startle reflex, a small hand clicker was used to generate a loud popping noise and the following behaviors were identified during this process: jumping, freezing, and rapid eye blinks. For the righting reflex, each mouse was then removed from its home cage and placed on its back allowing the mouse to correct itself. Tail pinch was tested by gently squeezing the end of the tail with forceps."}, "[6]": {"experiment": "Body temperature (rectum) in R6/2 mice", "conditions": "for Body temperature vs vehicle: day 7, p<0.05", "procedure": "Body temperature was measured from rectum on day 1 (baseline), and on days 3, 5 and 7.\nBody temperature was measured from rectum on day 1 (baseline) and on days 3, 5 and 7."}}, "note": "Values joined by “and” are separate entries in the source; they are usually repeats but may differ in a detail not shown here. Equal entries are not always repeated.", "data": [{"compound": "CN(C)CCCNC(=N)c1ccc(C(=N)NCCCN(C)C)cc1.Cl.Cl.Cl.Cl", "note": "[DB213]", "values": [{"measurement": "Dominant toxic effect in control fly", "setting": "DsRedCAG0 control fly", "value": "did not show any dominant toxic effect"}, {"measurement": "Cell death (LDH assay)", "setting": "trMJDCAG78 cells", "value": "only partially inhibited the abnormal cell death"}, {"measurement": "No observed cytotoxicity up to", "setting": "[1]; cellular toxicity", "value": "up to 12.8 μM"}, {"measurement": "Concentration up to which viability of wild-type primary neurons was not compromised", "setting": "[1]; primary rat cortical neurons", "value": "up to 12,800 nM"}, {"measurement": "pre-45s rRNA transcription level", "setting": "[2]", "value": "could restore the pre-45s rRNA transcription level"}, {"measurement": "pre-45s rRNA transcription level", "setting": "[3]", "value": "did not alter the pre-45s rRNA transcription level"}, {"measurement": "Movement activity in open field test", "setting": "R6/2 Huntington's mice [4]; day 7 post-dosing", "value": "no effect on movement activity"}, {"measurement": "Open field distance, rearings, distance in center, rearings in center or velocity, differences between treatment groups", "setting": "R6/2 Huntington's mice [4]; i.n. dosing, day 7", "value": "no differences"}, {"measurement": "Open field distance, rearings, distance in center, rearings in center or velocity, differences between treatment groups", "setting": "R6/2 Huntington's mice [4]; i.v. dosing, baseline or day 7", "value": "no differences"}, {"measurement": "Mean neurological index score of all parameters vs vehicle", "setting": "R6/2 Huntington's mice [5]; i.n. 300 mg/kg, day 3, p<0.05", "value": "significantly higher mean score"}, {"measurement": "Neurological index score, differences between treatment groups", "setting": "R6/2 Huntington's mice [5]; i.v. dosing", "value": "no differences in neurological index score"}, {"measurement": "Neurological index score", "setting": "R6/2 Huntington's mice [5]; intranasal dosing", "value": "increased neurological index score"}, {"measurement": "Body temperature vs vehicle", "setting": "[6]; i.n. 100 mg/kg", "value": "increased"}, {"measurement": "Body temperature vs vehicle", "setting": "[6]; i.n. 300 mg/kg", "value": "increased"}, {"measurement": "Body temperature (group Mean)", "setting": "[6]; i.n. daily 50 mg/kg, Day 1 (baseline)", "value": 36.9}, {"measurement": "Body temperature (individual mouse)", "setting": "[6]; i.n. daily 50 mg/kg, Day 1 (baseline), listed as Compound-5, 50 mg/kg", "value": "37 and 35.9 and 36.4"}, {"measurement": "Body temperature (group Mean)", "setting": "[6]; i.n. daily 50 mg/kg, Day 3", "value": 36.9}, {"measurement": "Body temperature (individual mouse)", "setting": "[6]; i.n. daily 50 mg/kg, Day 3, listed as Compound-5, 50 mg/kg", "value": "36.9 and 35.8 and 37"}, {"measurement": "Body temperature (individual mouse)", "setting": "[6]; i.n. daily 50 mg/kg, Day 5, listed as Compound-5, 50 mg/kg", "value": 37.9}, {"measurement": "Body temperature (individual mouse)", "setting": "[6]; i.n. daily 50 mg/kg, Day 7, listed as Compound-5, 50 mg/kg", "value": "37 and 38.1"}, {"measurement": "Body temperature (group Mean)", "setting": "[6]; i.n. daily 100 mg/kg, Day 1 (baseline)", "value": 37.0}, {"measurement": "Body temperature (individual mouse)", "setting": "[6]; i.n. daily 100 mg/kg, Day 3, listed as Compound-5, 100 mg/kg", "value": "37.7 and 37 and 36.9"}, {"measurement": "Body temperature (individual mouse)", "setting": "[6]; i.n. daily 100 mg/kg, Day 5, listed as Compound-5, 100 mg/kg", "value": "37.7 (2×) and 36.6 and 37.9 and 36.9"}, {"measurement": "Body temperature (individual mouse)", "setting": "[6]; i.n. daily 100 mg/kg, Day 7, listed as Compound-5, 100 mg/kg", "value": "38.1 and 37.7 and 36.9"}, {"measurement": "Body temperature (individual mouse)", "setting": "[6]; i.n. daily 200 mg/kg, Day 1 (baseline), listed as Compound-5, 200 mg/kg", "value": "36.9 (2×) and 37.7"}, {"measurement": "Body temperature (individual mouse)", "setting": "[6]; i.n. daily 200 mg/kg, Day 3, listed as Compound-5, 200 mg/kg", "value": 36.6}, {"measurement": "Body temperature (individual mouse)", "setting": "[6]; i.n. daily 200 mg/kg, Day 5, listed as Compound-5, 200 mg/kg", "value": 38}, {"measurement": "Body temperature (individual mouse)", "setting": "[6]; i.n. daily 300 mg/kg, Day 5, listed as Compound-5, 300 mg/kg", "value": 38}, {"measurement": "Body temperature (individual mouse)", "setting": "[6]; i.n. daily 300 mg/kg, Day 7, listed as Compound-5, 300 mg/kg", "value": 37.9}, {"measurement": "Body temperature (group Mean)", "setting": "[6]; i.v. 50 mg/kg (treatment discontinued), Day 3, n 1", "value": 37.7}, {"measurement": "Body temperature (group Mean)", "setting": "[6]; i.v. 50 mg/kg (treatment discontinued), Day 5, n 1", "value": 38.0}, {"measurement": "Body temperature (group Mean)", "setting": "[6]; i.v. 50 mg/kg (treatment discontinued), Day 7, n 1", "value": 37.0}, {"measurement": "Body temperature, differences between treatment groups", "setting": "[6]; i.v. dosing, p>0.05", "value": "no significant differences"}, {"measurement": "Body temperature (group Mean)", "setting": "[6]; i.v. twice-a-week 12.5 mg/kg, Day 1 (baseline)", "value": 36.7}, {"measurement": "Body temperature (individual mouse)", "setting": "[6]; i.v. twice-a-week 12.5 mg/kg, Day 1 (baseline), listed as Compound-5", "value": "35.7 and 37"}, {"measurement": "Body temperature (individual mouse)", "setting": "[6]; i.v. twice-a-week 12.5 mg/kg, Day 3, listed as Compound-5", "value": 38}, {"measurement": "Body temperature (group Mean)", "setting": "[6]; i.v. twice-a-week 12.5 mg/kg, Day 5", "value": 37.0}, {"measurement": "Body temperature (individual mouse)", "setting": "[6]; i.v. twice-a-week 12.5 mg/kg, Day 5, listed as Compound-5", "value": 37}, {"measurement": "Body temperature (individual mouse)", "setting": "[6]; i.v. twice-a-week 12.5 mg/kg, Day 7, listed as Compound-5", "value": "37 and 38.6"}, {"measurement": "Body temperature (group Mean)", "setting": "[6]; i.v. twice-a-week 25 mg/kg, Day 1 (baseline)", "value": 37.0}, {"measurement": "Body temperature (individual mouse)", "setting": "[6]; i.v. twice-a-week 25 mg/kg, Day 1 (baseline), listed as Compound-5", "value": "37.9 and 36.6 and 36.4 and 38.5"}, {"measurement": "Body temperature (individual mouse)", "setting": "[6]; i.v. twice-a-week 25 mg/kg, Day 3, listed as Compound-5", "value": 36.9}, {"measurement": "Body temperature (individual mouse)", "setting": "[6]; i.v. twice-a-week 25 mg/kg, Day 5, listed as Compound-5", "value": 37.9}, {"measurement": "Body temperature", "setting": "[6]; intranasal dosing", "value": "increased"}]}]}
